From publication PMC10817917, “Alkyl deoxyglycoside-polymyxin combinations against critical priority carbapenem-resistant gram-negative bacteria” (Scientific Reports, 2024)
Where two headings read alike, the source gives them in different places.

Tests used:
[1] = tested on: Bacillus anthracis (Sterne, ovine and pathogenic forms), Enterococcus faecalis and Bacillus cereus; conditions: Gram-positive bacteria; cited from earlier work
K. pneumoniae CQ1947 = assay: Broth microdilution MIC, glycosides with or without polymyxins; assay type: cell-based, Klebsiella pneumoniae; conditions: for MIC: Klebsiella pneumoniae, CQ1947
P. aeruginosa CQ4924 = assay: as above; assay type: cell-based, Pseudomonas aeruginosa; conditions: for MIC: Pseudomonas aeruginosa, CQ4924
E. coli NCTC 13846 = assay: Broth microdilution MIC/MBC, glycosides with or without polymyxins; assay type: cell-based, Escherichia coli; conditions: strain B
A. baumannii CQ4322 = assay: as above; assay type: cell-based, Acinetobacter baumannii; conditions: for MIC: Acinetobacter baumannii, CQ4322
K. pneumoniae CQ4921 = assay: as above; assay type: cell-based, Klebsiella pneumoniae; conditions: strain C
[2] = alone, read-out: MICA (MIC of each compound individually)
[3] = combination with the lowest FICI
[4] = compound + colistin, lowest FICI

CCCCCCCCCCCCO[C@@H]1O[C@H](C)C[C@H](O)[C@H]1O [Compound 2, dodecyl 4,6-dideoxy-α/β-D-xylo-hexopyranoside]
MIC [1]: > 405 µM | MIC of colistin in combination with the compound (K. pneumoniae CQ1947; Cpd conc. 0.4 μg/mL, strain F): > 0.5 µg/mL | MIC of colistin in combination with the compound (K. pneumoniae CQ1947; Cpd conc. 0.8 μg/mL, strain F): 0.5 µg/mL | MIC of colistin in combination with the compound (K. pneumoniae CQ1947; Cpd conc. 3.125 μg/mL, strain F): 0.5 µg/mL | MIC of colistin in combination with the compound (K. pneumoniae CQ1947; Cpd conc. 6.25 μg/mL, strain F): 0.5 µg/mL | MIC of colistin in combination with the compound (K. pneumoniae CQ1947; Cpd conc. 12.5 μg/mL, strain F): 0.5 µg/mL | MIC of colistin in combination with the compound (K. pneumoniae CQ1947; Cpd conc. […], strain F): 0.5 µg/mL | MIC (K. pneumoniae CQ1947; agent alone, no adjuvant (polymyxin conc. 0), strain F, read-out: MIC): > 100 µg/mL | MIC (K. pneumoniae CQ1947; [2]): > 100 µg/mL | MIC of compound in combination with PMB (K. pneumoniae CQ1947; PMB 0.25 μg/mL, strain F): > 100 µg/mL | MIC of compound in combination with PMB (K. pneumoniae CQ1947; PMB 0.5 μg/mL, strain F): 0.8 µg/mL | MIC of compound in combination with colistin (K. pneumoniae CQ1947; colistin 0.06 μg/mL, strain F): > 100 µg/mL | MIC of compound in combination with colistin (K. pneumoniae CQ1947; colistin 0.125 μg/mL, strain F): > 100 µg/mL | MIC of compound in combination with colistin (K. pneumoniae CQ1947; colistin 0.25 μg/mL, strain F): > 100 µg/mL | MIC of compound in combination with colistin (K. pneumoniae CQ1947; colistin 0.5 μg/mL, strain F): 0.8 µg/mL | MICA(A + B) (MIC of compound in combination with colistin) (K. pneumoniae CQ1947; [3]): 0.8 µg/mL | MICB(A + B) (MIC of colistin in combination with compound) (K. pneumoniae CQ1947; [3]): 0.5 µg/mL | Interpretation (of FICI) (K. pneumoniae CQ1947; compound + colistin): Indifferent (1.0 to 4.0 were indifferent) | FICI (K. pneumoniae CQ1947; [4]): 1.004 | MIC of colistin in combination with the compound (P. aeruginosa CQ4924; Cpd conc. 0.4 μg/mL, strain H): > 0.5 µg/mL | MIC of colistin in combination with the compound (P. aeruginosa CQ4924; Cpd conc. 0.8 μg/mL, strain H): > 0.5 µg/mL | MIC of colistin in combination with the compound (P. aeruginosa CQ4924; Cpd conc. 3.125 μg/mL, strain H): > 0.5 µg/mL | MIC of colistin in combination with the compound (P. aeruginosa CQ4924; Cpd conc. 6.25 μg/mL, strain H): 0.5 µg/mL | MIC of colistin in combination with the compound (P. aeruginosa CQ4924; Cpd conc. 12.5 μg/mL, strain H): 0.5 µg/mL | MIC of colistin in combination with the compound (P. aeruginosa CQ4924; Cpd conc. […], strain H): > 0.5 µg/mL | MIC of compound in combination with PMB (P. aeruginosa CQ4924; PMB 0.25 μg/mL, strain H): > 100 µg/mL | MIC (P. aeruginosa CQ4924; agent alone, no adjuvant (polymyxin conc. 0), strain H, read-out: MIC): > 100 µg/mL | MIC (P. aeruginosa CQ4924; [2]): > 100 µg/mL | MIC of compound in combination with colistin (P. aeruginosa CQ4924; colistin 0.06 μg/mL, strain H): > 100 µg/mL | MIC of compound in combination with colistin (P. aeruginosa CQ4924; colistin 0.125 μg/mL, strain H): > 100 µg/mL | MIC of compound in combination with colistin (P. aeruginosa CQ4924; colistin 0.25 μg/mL, strain H): > 100 µg/mL | MIC of compound in combination with colistin (P. aeruginosa CQ4924; colistin 0.5 μg/mL, strain H): 6.3 µg/mL | MICA(A + B) (MIC of compound in combination with colistin) (P. aeruginosa CQ4924; [3]): 6.25 µg/mL | MICB(A + B) (MIC of colistin in combination with compound) (P. aeruginosa CQ4924; [3]): 0.5 µg/mL | Interpretation (of FICI) (P. aeruginosa CQ4924; compound + colistin): Additive (from 0.5 to 1.0 were additive) | FICI (P. aeruginosa CQ4924; [4]): 0.53 | MIC of colistin in combination with the compound (E. coli NCTC 13846; Cpd conc. 0.4 μg/mL): > 0.5 µg/mL | MIC of colistin in combination with the compound (E. coli NCTC 13846; Cpd conc. 0.8 μg/mL): > 0.5 µg/mL | MIC of colistin in combination with the compound (E. coli NCTC 13846; Cpd conc. 3.125 μg/mL): > 0.5 µg/mL | MIC of colistin in combination with the compound (E. coli NCTC 13846; Cpd conc. 6.25 μg/mL): > 0.5 µg/mL | MIC of colistin in combination with the compound (E. coli NCTC 13846; Cpd conc. 12.5 μg/mL): > 0.5 µg/mL | MIC of colistin in combination with the compound (E. coli NCTC 13846; Cpd conc. […]): > 0.5 µg/mL | MIC (E. coli NCTC 13846; Escherichia coli, NCTC13846, agent alone, no adjuvant (polymyxin conc. 0), read-out: MIC): > 100 µg/mL | MIC of compound in combination with PMB (E. coli NCTC 13846; PMB 0.25 μg/mL): > 100 µg/mL | MIC of compound in combination with PMB (E. coli NCTC 13846; PMB 0.5 μg/mL): > 100 µg/mL | MIC of compound in combination with colistin (E. coli NCTC 13846; colistin 0.06 μg/mL): > 100 µg/mL | MBC of compound in combination with colistin (E. coli NCTC 13846; colistin 0.125 μg/mL): > 100|> 100 μg/mL | MIC of compound in combination with colistin (E. coli NCTC 13846; colistin 0.125 μg/mL): > 100|> 100 μg/mL | MIC of compound in combination with colistin (E. coli NCTC 13846; colistin 0.25 μg/mL): > 100 µg/mL | MIC of compound in combination with colistin (E. coli NCTC 13846; colistin 0.5 μg/mL): > 100 µg/mL | MIC (A. baumannii CQ4322; agent alone, no adjuvant (polymyxin conc. 0), strain G, read-out: MIC): > 100 µg/mL | MIC (A. baumannii CQ4322; [2]): > 100 µg/mL | MIC of colistin in combination with the compound (A. baumannii CQ4322; Cpd conc. 0.4 μg/mL, strain G): > 0.5 µg/mL | MIC of colistin in combination with the compound (A. baumannii CQ4322; Cpd conc. 0.8 μg/mL, strain G): 0.5 µg/mL | MIC of colistin in combination with the compound (A. baumannii CQ4322; Cpd conc. 3.125 μg/mL, strain G): 0.25 µg/mL | MIC of colistin in combination with the compound (A. baumannii CQ4322; Cpd conc. 6.25 μg/mL, strain G): 0.125 µg/mL | MIC of colistin in combination with the compound (A. baumannii CQ4322; Cpd conc. 12.5 μg/mL, strain G): 0.125 µg/mL | MIC of colistin in combination with the compound (A. baumannii CQ4322; Cpd conc. […], strain G): 0.5 µg/mL | MIC of compound in combination with PMB (A. baumannii CQ4322; PMB 0.5 μg/mL, strain G): 0.8 µg/mL | MIC of compound in combination with colistin (A. baumannii CQ4322; colistin 0.06 μg/mL, strain G): > 100 µg/mL | MBC of compound in combination with colistin (A. baumannii CQ4322; colistin 0.125 μg/mL, strain G): 12.5 µg/mL | MIC of compound in combination with colistin (A. baumannii CQ4322; colistin 0.125 μg/mL, strain G): 6.3 µg/mL | MIC of compound in combination with colistin (A. baumannii CQ4322; colistin 0.25 μg/mL, strain G): 3.1 µg/mL | MIC of compound in combination with colistin (A. baumannii CQ4322; colistin 0.5 μg/mL, strain G): 0.8 µg/mL | MICA(A + B) (MIC of compound in combination with colistin) (A. baumannii CQ4322; [3]): 6.25 µg/mL | MICB(A + B) (MIC of colistin in combination with compound) (A. baumannii CQ4322; [3]): 0.125 µg/mL | FICI (A. baumannii CQ4322; [4]): 0.28 | MIC of colistin in combination with the compound (K. pneumoniae CQ4921; Cpd conc. 0.4 μg/mL): 0.5 µg/mL | MIC of colistin in combination with the compound (K. pneumoniae CQ4921; Cpd conc. 0.8 μg/mL): 0.5 µg/mL
